Experimental data reported in US20240109917A1 (ACTELION PHARMACEUTICALS LTD, priority 2020, published 2024).

Target: VEGFR2, unphosphorylated (Homo sapiens (Human), UniProt P35968)
Test: VEGFR ADP GLO Assay
Type: biochemical

Sequence of VEGFR2, unphosphorylated (P35968 20-1356): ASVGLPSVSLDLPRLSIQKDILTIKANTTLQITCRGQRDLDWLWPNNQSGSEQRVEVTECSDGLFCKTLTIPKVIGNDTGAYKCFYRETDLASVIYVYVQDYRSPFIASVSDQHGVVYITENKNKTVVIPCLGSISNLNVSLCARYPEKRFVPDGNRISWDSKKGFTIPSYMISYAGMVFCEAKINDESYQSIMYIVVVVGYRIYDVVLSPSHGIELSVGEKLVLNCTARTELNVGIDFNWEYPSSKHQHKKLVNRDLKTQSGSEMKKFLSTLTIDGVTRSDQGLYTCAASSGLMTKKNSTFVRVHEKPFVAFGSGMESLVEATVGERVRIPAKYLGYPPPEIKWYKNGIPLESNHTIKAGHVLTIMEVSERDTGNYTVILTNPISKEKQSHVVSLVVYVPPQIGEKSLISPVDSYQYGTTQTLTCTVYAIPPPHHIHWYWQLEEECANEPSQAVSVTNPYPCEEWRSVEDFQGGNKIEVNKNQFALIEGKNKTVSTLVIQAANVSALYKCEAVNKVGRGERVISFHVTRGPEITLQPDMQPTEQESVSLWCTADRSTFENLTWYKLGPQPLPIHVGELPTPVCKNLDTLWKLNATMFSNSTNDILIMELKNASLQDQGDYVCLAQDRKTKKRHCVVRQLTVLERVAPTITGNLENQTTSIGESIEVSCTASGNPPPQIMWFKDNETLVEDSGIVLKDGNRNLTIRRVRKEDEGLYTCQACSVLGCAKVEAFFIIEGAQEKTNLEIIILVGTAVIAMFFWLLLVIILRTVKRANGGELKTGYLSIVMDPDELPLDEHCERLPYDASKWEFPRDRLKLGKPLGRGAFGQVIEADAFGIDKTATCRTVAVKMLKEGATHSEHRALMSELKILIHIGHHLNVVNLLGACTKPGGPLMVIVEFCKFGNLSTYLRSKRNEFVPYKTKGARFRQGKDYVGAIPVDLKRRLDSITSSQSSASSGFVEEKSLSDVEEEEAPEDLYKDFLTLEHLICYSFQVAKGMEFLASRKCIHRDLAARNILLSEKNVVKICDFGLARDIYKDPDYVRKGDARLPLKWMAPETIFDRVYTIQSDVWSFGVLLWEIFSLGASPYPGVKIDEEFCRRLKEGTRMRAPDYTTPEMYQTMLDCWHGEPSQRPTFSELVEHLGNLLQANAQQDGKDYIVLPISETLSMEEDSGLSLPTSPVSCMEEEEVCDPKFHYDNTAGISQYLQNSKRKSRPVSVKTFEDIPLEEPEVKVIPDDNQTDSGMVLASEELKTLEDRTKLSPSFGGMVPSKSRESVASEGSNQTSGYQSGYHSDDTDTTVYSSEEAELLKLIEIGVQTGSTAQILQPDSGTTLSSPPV

`Cc1ncc(NC(=O)CN2CC(C)(C)C2)cc1NC(=O)c1cnn2cc(-c3ccn(S(C)(=O)=O)c3)sc12` [Example 275, N-(5-(2-(3,3-dimethylazetidin-1-yl)acetamido)-2-methylpyridin-3-yl)-2-(1-(methylsulfonyl)-1H-pyrrol-3-yl)pyrazolo[5,1-b]thiazole-7-carboxamide] and `Cc1ncc(NC(=O)CN2CC(C)(C)C2)cc1NC(=O)c1cnn2cc(-c3ccoc3)sc12` [Example 283, N-(5-(2-(3,3-dimethylazetidin-1-yl)acetamido)-2-methylpyridin-3-yl)-2-(furan-3-yl)pyrazolo[5,1-b]thiazole-7-carboxamide] cannot be ordered by IC50: over 7.5 µM for the first, over 7.5 µM for the second.

`CC(=O)Nc1cncc(-c2cn3ncc(C(=O)Nc4cc(NC(=O)CN5CC(C)(C)C5)cnc4C)c3s2)c1` [Example 277, 2-(5-acetamidopyridin-3-yl)-N-(5-(2-(3,3-dimethylazetidin-1-yl)acetamido)-2-methylpyridin-3-yl)pyrazolo[5,1-b]thiazole-7-carboxamide] and `Cc1ncc(NC(=O)CN2CC(C)(C)C2)cc1NC(=O)c1cnn2cc(-c3cnc4[nH]ncc4c3)sc12` [Example 288, N-(5-(2-(3,3-dimethylazetidin-1-yl)acetamido)-2-methylpyridin-3-yl)-2-(1H-pyrazolo[3,4-b]pyridin-5-yl)pyrazolo[5,1-b]thiazole-7-carboxamide] cannot be ordered by IC50: over 2.5 µM for the first, over 2.5 µM for the second.

`Cc1ncc(NC(=O)CN2CC(C)(C)C2)cc1NC(=O)c1cnn2cc(-c3ccc(CO)s3)sc12` [Example 278, N-(5-(2-(3,3-dimethylazetidin-1-yl)acetamido)-2-methylpyridin-3-yl)-2-(5-(hydroxymethyl)thiophen-2-yl)pyrazolo[5,1-b]thiazole-7-carboxamide] and `Cc1ncc(NC(=O)CN2CC(C)(C)C2)cc1NC(=O)c1cnn2cc(-c3ccc(CO)o3)sc12` [Example 292, N-(5-(2-(3,3-dimethylazetidin-1-yl)acetamido)-2-methylpyridin-3-yl)-2-(5-(hydroxymethyl)furan-2-yl)pyrazolo[5,1-b]thiazole-7-carboxamide] cannot be ordered by IC50: over 7.5 µM for the first, over 7.5 µM for the second.

`CNC(=O)Cn1cc(-c2cn3ncc(C(=O)Nc4cc(NC(=O)CN5CC(C)(C)C5)cnc4C)c3s2)cn1` [Example 279, N-(5-(2-(3,3-dimethylazetidin-1-yl)acetamido)-2-methylpyridin-3-yl)-2-(1-(2-(methylamino)-2-oxoethyl)-1H-pyrazol-4-yl)pyrazolo[5,1-b]thiazole-7-carboxamide] and `Cc1ncc(NC(=O)CN2CC(C)(C)C2)cc1NC(=O)c1cnn2cc(-c3cnn(CC(C)O)c3)sc12` (centres unmarked) [Example 281, N-(5-(2-(3,3-dimethylazetidin-1-yl)acetamido)-2-methylpyridin-3-yl)-2-(1-(2-hydroxypropyl)-1H-pyrazol-4-yl)pyrazolo[5,1-b]thiazole-7-carboxamide] cannot be ordered by IC50: over 7.5 µM for the first, over 7.5 µM for the second.

`Cc1ncc(NC(=O)CN2CC(C)(C)C2)cc1NC(=O)c1cnn2cc(-c3cnn(C4CCS(=O)(=O)CC4)c3)sc12` [Example 280, N-(5-(2-(3,3-dimethylazetidin-1-yl)acetamido)-2-methylpyridin-3-yl)-2-(1-(1,1-dioxidotetrahydro-2H-thiopyran-4-yl)-1H-pyrazol-4-yl)pyrazolo[5,1-b]thiazole-7-carboxamide] and `Cc1ncc(NC(=O)CN2CC(C)(C)C2)cc1NC(=O)c1cnn2cc(-c3cnn(C4CCNCC4)c3)sc12` [Example 293, N-(5-(2-(3,3-dimethylazetidin-1-yl)acetamido)-2-methylpyridin-3-yl)-2-(1-(piperidin-4-yl)-1H-pyrazol-4-yl)pyrazolo[5,1-b]thiazole-7-carboxamide] cannot be ordered by IC50: over 7.5 µM for the first, over 7.5 µM for the second.

First: Cc1ncc(NC(=O)CN2CC(C)(C)C2)cc1NC(=O)c1cnn2cc(-c3ccsc3)sc12 [Example 282, N-(5-(2-(3,3-dimethylazetidin-1-yl)acetamido)-2-methylpyridin-3-yl)-2-(thiophen-3-yl)pyrazolo[5,1-b]thiazole-7-carboxamide]
Second: Cc1ncc(NC(=O)CN2CC(C)(C)C2)cc1NC(=O)c1cnn2cc(-c3cc[nH]c3)sc12 [Example 285, N-(5-(2-(3,3-dimethylazetidin-1-yl)acetamido)-2-methylpyridin-3-yl)-2-(1H-pyrrol-3-yl)pyrazolo[5,1-b]thiazole-7-carboxamide]
The IC50 of the first is lower: 2.68 µM for the first, over 7.5 µM for the second.

`Cc1ncc(NC(=O)CN2CC(C)(C)C2)cc1NC(=O)c1cnn2cc(-c3ccnc(N4CCOCC4)c3)sc12` [Example 284, N-(5-(2-(3,3-dimethylazetidin-1-yl)acetamido)-2-methylpyridin-3-yl)-2-(2-morpholinopyridin-4-yl)pyrazolo[5,1-b]thiazole-7-carboxamide] and `Cc1ncc(NC(=O)CN2CC(C)(C)C2)cc1NC(=O)c1cnn2cc(-c3cnn(-c4cccnc4)c3)sc12` [Example 289, N-(5-(2-(3,3-dimethylazetidin-1-yl)acetamido)-2-methylpyridin-3-yl)-2-(1-(pyridin-3-yl)-1H-pyrazol-4-yl)pyrazolo[5,1-b]thiazole-7-carboxamide] cannot be ordered by IC50: over 7.5 µM for the first, over 7.5 µM for the second.

First: Cc1ncc(NC(=O)CN2CC(C)(C)C2)cc1NC(=O)c1cnn2cc(-c3cccc4c3cnn4C)sc12 [Example 286, N-(5-(2-(3,3-dimethylazetidin-1-yl)acetamido)-2-methylpyridin-3-yl)-2-(1-methyl-1H-indazol-4-yl)pyrazolo[5,1-b]thiazole-7-carboxamide]
Second: Cc1ncc(NC(=O)CN2CC(C)(C)C2)cc1NC(=O)c1cnn2cc(-c3c[nH]c4ccccc34)sc12 [Example 287, N-(5-(2-(3,3-dimethylazetidin-1-yl)acetamido)-2-methylpyridin-3-yl)-2-(1H-indol-3-yl)pyrazolo[5,1-b]thiazole-7-carboxamide]
The IC50 of the first is higher: over 2.5 µM for the first, 1.74 µM for the second.

`Cc1ncc(NC(=O)CN2CC(C)(C)C2)cc1NC(=O)c1cnn2cc(-c3cnn(CCO)c3)sc12` [Example 290, N-(5-(2-(3,3-dimethylazetidin-1-yl)acetamido)-2-methylpyridin-3-yl)-2-(1-(2-hydroxyethyl)-1H-pyrazol-4-yl)pyrazolo[5,1-b]thiazole-7-carboxamide] and `Cc1ncc(NC(=O)CN(C)C2CCOCC2)cc1NC(=O)c1cnn2cc(-c3cnn(C(F)F)c3)sc12` [Example 295, 2-(1-(difluoromethyl)-1H-pyrazol-4-yl)-N-(2-methyl-5-(2-(methyl(tetrahydro-2H-pyran-4-yl)amino)acetamido)pyridin-3-yl)pyrazolo[5,1-b]thiazole-7-carboxamide] cannot be ordered by IC50: over 7.5 µM for the first, over 7.5 µM for the second.

`Cc1ncc(NC(=O)CN(C)C2CCOCC2)cc1NC(=O)c1cnn2cc(-c3cnn(C4CC4)c3)sc12` [Example 294, 2-(1-cyclopropyl-1H-pyrazol-4-yl)-N-(2-methyl-5-(2-(methyl(tetrahydro-2H-pyran-4-yl)amino)acetamido)pyridin-3-yl)pyrazolo[5,1-b]thiazole-7-carboxamide] and `Cc1ncc(NC(=O)CN(C)C2CCOCC2)cc1NC(=O)c1cnn2cc(-c3cnn(C4CCC4)c3)sc12` [Example 296, 2-(1-cyclobutyl-1H-pyrazol-4-yl)-N-(2-methyl-5-(2-(methyl(tetrahydro-2H-pyran-4-yl)amino)acetamido)pyridin-3-yl)pyrazolo[5,1-b]thiazole-7-carboxamide] cannot be ordered by IC50: over 7.5 µM for the first, over 7.5 µM for the second.
